Experiments:
[1] = system: rabbit blood platelets (platelet rich plasma), ADP-induced aggregation; assay: inhibition of platelet aggregation in rabbit platelet rich plasma (in vitro), induced by ADP; format: cell-based; settings: rabbit PRP, ADP 10^-5 M; for inhibition at 30 µg/mL / inhibition at 100 µg/mL / inhibition at 3 µg/mL / inhibition at 10 µg/mL: Oryctolagus cuniculus, Platelet, read-out: percentage of inhibition, ADP; for inhibition at 30 µg/mL: 30 μg/ml; for inhibition at 3 µg/mL: 3 μg/ml; for inhibition at 10 µg/mL: 10 μg/ml
Method: (§1) In this example, the inhibition of platelet aggregation in rabbit platelet rich plasma (in vitro) is tested.
(§2) In this test, 9 vol. of blood is sampled from the carotid artery of rabbits (2 to 2.5 Kg) and placed in a silicon-coated flask containing 1 vol. of 3.8% sodium citrate. The thus obtained blood is centrifuged at 1,000 rpm for 15 minutes to obtain platelet rich plasma (referred to as "PRP" hereinafter). The aggregation of blood platelets is observed using an aggregometer (made by Bryston Co.) and the degree of aggregation after the addition of aggregation promoting substances is measured by nephelometry, i.e., through increase in light transmission.
(§3) The PRP (0.9 ml) is placed in a silicon-coated cuvett of the aggregometer. Then, 0.05 ml of physiological saline solution containing various concentrations of test reagents or control reagents is added and the mixture is allowed to stand for one minute. Compounds promoting aggregation are then added and the absorbancy of the solution is measured and the percent inhibition of aggregation is calculated according to the following equation: [formula] C: Transmittancy showing the maximum percent aggregation by physiological saline solution
(§4) D: Transmittancy showing the maximum percent aggregation by sample
(§5) Test for the inhibition of platelet aggregation induced by ADP, collagen and thrombin.

[2] = system: rabbit blood platelets (platelet rich plasma), collagen-induced aggregation; assay: inhibition of platelet aggregation in rabbit platelet rich plasma (in vitro), induced by collagen; format: cell-based; settings: rabbit PRP; for inhibition at 30 µg/mL: 30 μg/ml; for inhibition at 3 µg/mL: 3 μg/ml; for inhibition at 10 µg/mL: 10 μg/ml
Method: as §1, §2, §3, §4, §5

[3] = Oryctolagus cuniculus, Platelet, read-out: percentage of inhibition, collagen
[4] = Oryctolagus cuniculus, Platelet, 100 μg/ml, read-out: percentage of inhibition, collagen

Molecule | inhibition at 30 µg/mL [1] | inhibition at 100 µg/mL ([1]; 100 μg/ml) | inhibition at 30 µg/mL [2, 3] | inhibition at 100 µg/mL [2, 4] | other results
CCCCCCCCCCCC(=O)OCCCNC(=O)c1ccccc1SSc1ccccc1C(=O)NCCCOC(=O)CCCCCCCCCCC [Compound XXI, 2,2'-dithiobis(N-dodecanoyloxypropylbenzamide)] | 5% | 32% | 0% | 33% | 
CC(CCc1ccccc1)NC(=O)c1ccccc1SSc1ccccc1C(=O)NC(C)CCc1ccccc1 (stereo not shown) [Compound XIV, 2,2'-dithiobis[N-(1-methyl-3-phenylpropyl)]benzamide] | 28% |  | 24% |  | 
2,2'-dithiobis(N-naphthylbenzamide) [Compound XXXIX] |  |  |  |  | percentage of inhibition, ADP ([1]; 100 μg/ml): 25%; percentage of inhibition, collagen ([2]; 100 μg/ml): 12%
COC(CNC(=O)c1ccccc1SSc1ccccc1C(=O)NCC(OC)OC)OC [Compound XXXIV, 2,2'-dithiobis(N-2,2-di-methoxyethylbenzamide)] | 83% |  | 100% |  | inhibition at 3 µg/mL [1]: 21%; inhibition at 10 µg/mL [1]: 35%; inhibition at 3 µg/mL [2, 3]: 21%; inhibition at 10 µg/mL [2, 3]: 87%
CCOCCCNC(=O)c1ccccc1SSc1ccccc1C(=O)NCCCOCC [Compound XXXV, 2,2'-dithiobis(N-3-ethyloxypropylbenzamide)] |  | 35% | 31% | 100% | inhibition at 10 µg/mL [2, 3]: 15%
O=C(NCC(O)c1ccccc1)c1ccccc1SSc1ccccc1C(=O)NCC(O)c1ccccc1 (stereo not shown) [Compound XXXVIII, 2,2'-dithiobis(N-2-hydroxy-2-phenylethylbenzamide)] |  | 12% |  | 19% | 
O=C(NCCCO)c1ccccc1SSc1ccccc1C(=O)NCCCO [Compound XVI, 2,2'-dithiobis(N-3-hydroxypropylbenzamide)] |  | 88% |  | 100% | inhibition at 3 µg/mL [1]: 42%; inhibition at 10 µg/mL [1]: 64%; inhibition at 1 µg/mL ([2]; Oryctolagus cuniculus, Platelet, 1 μg/ml, read-out: percentage of inhibition, collagen): 8%; inhibition at 3 µg/mL [2, 3]: 50%; inhibition at 10 µg/mL [2, 3]: 78%
O=C(NC1CCC(O)CC1)c1ccccc1SSc1ccccc1C(=O)NC1CCC(O)CC1 (stereo not shown) [Compound XXXVI, 2,2'-dithiobis[N-(4-hydroxycyclohexyl)benzamide]] |  | 35% | 8% | 95% | 
CCCCCCCCCCCCNC(=O)c1ccccc1SSc1ccccc1C(=O)NCCCCCCCCCCCC [Compound VI, 2,2'-dithiobis(N-dodecylbenzamide)] | 0% | 35% | 0% | 89% | 
Nc1ncnc2c1ncn2[C@@H]1O[C@H](CO)[C@@H](O)[C@H]1O [adenosine, reference compound] |  | 39% |  |  | 
CCCCCCCCCCCC(=O)OC(C)CNC(=O)c1ccccc1SSc1ccccc1C(=O)NCC(C)OC(=O)CCCCCCCCCCC (stereo not shown) [Compound XXIII, 2,2'-dithiobis(N-2-dodecanoyloxypropylbenzamide)] | 19% | 93% | 52% | 100% | 
CCCCCCCCCCCCCCCC(=O)OC(C)CNC(=O)c1ccccc1SSc1ccccc1C(=O)NCC(C)OC(=O)CCCCCCCCCCCCCCC (stereo not shown) [Compound XXIV, 2,2'-dithiobis(N-2-hexadecanoyloxypropylbenzamide)] | 0% | 59% | 19% | 86% | 
O=C(c1ccccc1SSc1ccccc1C(=O)N1CCN(C(c2ccccc2)c2ccccc2)CC1)N1CCN(C(c2ccccc2)c2ccccc2)CC1 [Compound XXXIII, 2,2'-dithiobis(N'-diphenylmethylbenzpiperazide)] | 16% |  | 22% |  | 
O=C(NCN1CCCCC1)c1ccccc1SSc1ccccc1C(=O)NCN1CCCCC1 [Compound XXXVII, 2,2'-dithiobis(N-piperidinylmethylbenzamide)] |  | 20% |  |  | 
